This is an account of results in patent US20230295152A1 (SENDA BIOSCIENCES, INC., priority 2019, published 2023).

Where only a bound is given, the exact number is not on record here.

Data set [1] can be described thus: In vivo PK study in male Sprague Dawley rats. The conditions noted are these: rats; for C0 / AUC(0-inf) / AUC(0-t) / half-life / Cmax / Tmax / bioavailability: male, Sprague Dawley, rat, plasma; for AUC(0-inf): read-out: AUCInf Mean; for AUC(0-t): read-out: AUCLast Mean; for half-life: read-out: T1/2 Mean (converted); for bioavailability: read-out: Bioavailability. The method, boiled down:
(§1)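 Three males per group; dosing 1.0 mg/Kg i.v. (ethanol/PEG400/water) or 3.0 or 10 mg/kg p.o. (1% methyl cellulose). Plasma was sampled 0.083 (i.v.) or 0.25 (p.o.) to 24 h in rats and to 48 h in mice, with free food and water. Quantitation was by LC-MS/MS, followed by pharmacokinetic calculation.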

Data set [2] in a line: Caco-2 Permeability Assay. The conditions noted are these: human; for Papp A→B at 2 h, 1 μM: Caco-2, pH 7.4, apical to basolateral, read-out: Caco2 Papp (AB); for Papp B→A at 2 h, 1 μM: Caco-2, pH 7.4, basolateral to apical, read-out: Caco2 Papp (BA). In kind it is in vitro ADME.
Data set [3] in a line: In vivo PK study in male CD1 mice. The conditions noted are these: mice; for C0 / AUC(0-t) / half-life / Cmax / Tmax / bioavailability: male, CD1, mouse, plasma; for AUC(0-t): read-out: AUCLast Mean; for half-life: read-out: T1/2 Mean (converted); for bioavailability: read-out: Bioavailability. The procedure, abridged:
as §1

Data set [4] in a line: Hepatocyte Stability Assay, mouse. Also: tested at 1 µM. It is filed as in vitro ADME. The conditions noted are these: mouse hepatocytes.

Consider `Cn1cc(-c2nc(-c3ccc(C(F)(F)F)nc3)cc3c(=O)n(CC(C)(C)O)cnc23)cn1` [Compound 60], for which, in data set [1] (1 mg/kg IV), the C0 was found to be 425 ng/mL, the AUC(0-inf) was found to be 3050 ng·h/mL, the AUC(0-t) was 2910 ng·h/mL and the half-life is 5.61 h. Further, in data set [1] (1 mg/kg IV), the “CI Mean” value was found to be 91.3 mL/min/kg. Moreover, in data set [1] (PO, dosage of 3 mg/kg), the peak level (Cmax) was 152 ng/mL, the Tmax came out at 5.33 h, the AUC(0-t) was determined as 2430 ng·h/mL and the bioavailability was 27.9%. In data set [2], the Papp A→B at 2 h, 1 μM is more than 10 ×10⁻⁶ cm/s and the Papp B→A at 2 h, 1 μM was in the range of 2 to 10 ×10⁻⁶ cm/s. Further, in data set [3] (1 mg/kg IV), the C0 is 350 ng/mL, the AUC(0-t) was found to be 6520 ng·h/mL, the half-life was 11.8 h and the “CI Mean” value came to 40.3 mL/min/kg. Moreover, in data set [3] (10 mg/kg PO), the highest concentration (Cmax) was 1120 ng/mL, the Tmax was found to be 8 h, the AUC(0-t) was 29800 ng·h/mL and the bioavailability was determined as 45.7%. In data set [4], the Mouse hepatocyte clearance result is “++ (“++” indicates a CLint between 20 and 50 mL/min/Kg)”.
In the case of `CC(C)(O)Cn1cnc2c(-c3cccnc3)nc(-c3ccc(C(F)(F)F)cn3)cc2c1=O` [Compound 105], in data set [1] (1 mg/kg IV), the C0 is 411 ng/mL, the AUC(0-inf) amounted to 9520 ng·h/mL, the AUC(0-t) stood at 4410 ng·h/mL and the half-life is 27.1 h. The “CI Mean” value in data set [1] (1 mg/kg IV) is 29.5 mL/min/kg. For the same compound, in data set [1] (PO, dosage of 3 mg/kg), the maximum concentration (Cmax) stood at 592 ng/mL, the Tmax turned out to be 6.67 h, the AUC(0-t) amounted to 11900 ng·h/mL and the bioavailability stood at 90.2%. For the same compound, in data set [2], the Papp A→B at 2 h, 1 μM is more than 10 ×10⁻⁶ cm/s and the Papp B→A at 2 h, 1 μM lay within 2 to 10 ×10⁻⁶ cm/s. In data set [3] (1 mg/kg IV), the C0 was determined as 412 ng/mL, the AUC(0-t) is 11300 ng·h/mL, the half-life was 55.9 h and the “CI Mean” value worked out at 11.4 mL/min/kg. For the same compound, in data set [3] (10 mg/kg PO), the highest level (Cmax) was 2350 ng/mL, the time of peak concentration (Tmax) came out at 12 h, the AUC(0-t) was determined as 96100 ng·h/mL and the bioavailability is 85%. Moreover, the half-life in data set [3] (10 mg/kg PO) was 48.5 h. The Mouse hepatocyte clearance entry in data set [4] was “++ (“++” indicates a CLint between 20 and 50 mL/min/Kg)”.
